The test system of experiment [1] is Mycobacterium tuberculosis. In words: Antimicrobial activity against antibiotic-resistant Mycobacterium tuberculosis R46 at 50 ug/ml disc level. Format: functional, organism-based.
The subject of experiment [2] is Mycobacterium tuberculosis. Nature of the experiment: Antimicrobial activity against antibiotic-resistant Mycobacterium tuberculosis MTB72 at 50 ug/ml disc level. The format is functional, organism-based.

The values that follow come from ChEMBL document CHEMBL2331098, “Unprecedented polyketides from a marine sponge-associated Stachylidium sp” (J Nat Prod, 2013).

Active and inactive are the calls of the source. The rule behind the calls is not given here.

`COCc1c(C(C)O)cc(O)c(C)c1OC` (configuration not stated): the outcome in experiment [1] and in experiment [2] was inactive.
